This note sets out measurements from patent US20110034507A1, “FARNESOID X RECEPTOR AGONISTS” (SMITHKLINE BEECHAM CORPORATION, priority 2007, published 2011).

This assay concerns the target T1, Human FXRα Ligand Binding Domain (Homo sapiens, UniProt Q96RI1).
T1 construct: polyhistidine (pRSET-A vector leader) (N); made in house; host or cells: E. coli BL21 (DE3), pRSET-A vector
T1 sequence (Q96RI1 237-472 isoform Q96RI1-2): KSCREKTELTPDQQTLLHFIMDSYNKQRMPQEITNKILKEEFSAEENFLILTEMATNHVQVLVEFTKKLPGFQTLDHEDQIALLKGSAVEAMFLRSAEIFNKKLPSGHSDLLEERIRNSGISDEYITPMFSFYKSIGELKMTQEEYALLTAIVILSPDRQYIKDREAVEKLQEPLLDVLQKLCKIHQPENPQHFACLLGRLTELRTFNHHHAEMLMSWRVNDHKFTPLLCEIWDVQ
Description: FXR Cofactor Binding Assay (ligand mediated SRC-1 cofactor peptide interaction, time resolved fluorescence). In kind it is biochemical. The settings on record: FXRα LBD / SRC-1 (LCD2, 676-700) peptide, TRF; read-out: Activity (pEC50) (converted). An excerpt: Determination of a ligand mediated cofactor peptide interaction to quantify ligand binding to the nuclear receptor Farnesoid X Receptor (FXR). The method measures the ability of putative ligands to modulate the interaction between the purified bacterial expressed FXRα ligand binding domain (LBD) and a synthetic biotinylated peptide based on residues 676-700 of steroid receptor coactivator-1 (SRC-1) (LXXLL-containing domain-2 where L is the amino acid leucine and X indicates any other amino acid (LCD2), 676-700). The sequence of the SRC-1 peptide used is as published in Iannone, M. A., et al., 2001 Cytometry 44:326-337 where the N-terminus was biotinylated (B) and the C-terminus was amidated. Detection of the associated complex was measured by time resolved fluorescence (TRF). The purified LBD of FXR was labeled with biotin, then mixed with stoichiometric amounts of allophycocyanin (APC) labeled streptavidin (Molecular Probes). The biotinylated peptide was then mixed with a ½ stoichiometric amount of europium labeled streptavidin (Wallac Inc). Each was then blocked with a 5 fold excess of biotin and allowed to equilibrate for 15 min. Equimolar amounts of receptor and peptide were mixed together and were allowed to equilibrate for at least 30 min prior to the addition to either a variable or constant concentrations of the sample for which the affinity is to be determined. After equilibration, the time-resolved fluorescent signal was quantitated using a fluorescent plate reader. The affinity of the test compound was estimated from a plot of fluorescence versus concentration of test compound added.
Ligands that promote the complex formation induce a concentration-dependent increase in time-resolved fluorescent signal.
Human FXRα Ligand Binding Domain (FXRα LBD) was expressed in E. coli strain BL21 (DE3) as an amino-terminal polyhistidine tagged fusion protein. Expression was under the control of an isopropyl-β-D-thiogalactopyranoside (IPTG) inducible T7 promoter. DNA encoding this recombinant protein is subcloned into the pRSET-A expression vector (Invitrogen). The coding sequence of Human FXRα LBD was derived from Genbank accession number U 68233 (amino acids 237 to 472).
Ten-liter fermentation batches were grown in Rich PO4 media with 0.1 mg/mL Ampicillin at 25° C. for 12 hours, cooled to 9° C. and held at that temperature for 36 hours to a density of OD600=14. At this cell density, 0.25 mM IPTG is added and induction proceeded for 24 hours at 9° C., to a final OD600=16. Cells are harvested by centrifugation (20 minutes, 3500×gravity, 4° C.), and concentrated cell slurries were stored in phosphate buffered saline (PBS) at […].
Routinely, 30-40 g cell paste (equivalent to 2-3 liters of the fermentation batch) was resuspended in 200-250 mL Tris buffered saline (TBS), pH 7.2 (25 mM Tris-hydroxymethylamino methane (Tris), 150 mM sodium chloride). Cells were lysed by passing 3 times through a French Press and cell debris was removed by centrifugation (30 minutes, 20,000×gravity, 4° C.). The cleared supernatant was filtered through course pre-filters, and TBS, pH 7.2, 500 mM imidazole was added to obtain a final imidazole concentration of 50 mM. This lysate was loaded onto a column (6×8 cm) packed with Sepharose [Ni^++ charged] Chelation resin (Pharmacia) and pre-equilibrated with TBS pH 7.2/50 mM imidazole. After washing to baseline absorbance with equilibration buffer, the column was washed with one column volume of TBS pH 7.2 containing 90 mM imidazole. FXRα LBD was eluted directly with 365 mM imidazole. Column fractions were pooled and dialyzed against TBS, pH 7.2, containing 0.5 mM EDTA and 5 mM DTT. The dialyzed protein sample was concentrated using Centri-prep 10 K (Amicon) and subjected to size exclusion, using a column (3×90 cm) packed with Sepharose S-75 resin (Pharmacia) pre-equilibrated with TBS, pH 7.2, containing 0.5 mM ethylene diamine tetraacetic acid (EDTA) and 5 mM dithiothreitol (DTT).

In the case of `CC(C)c1onc(-c2c(Cl)cccc2Cl)c1COc1ccc2cc(-c3ccc(C(=O)O)cc3)ccc2c1` [Example 22, 4-[6-({[3-(2,6-Dichlorophenyl)-5-(1-methylethyl)-4-isoxazolyl]methyl}oxy)-2-naphthalenyl]benzoic acid], the EC50 was 102 to 1000 nM.

Take `CC(C)c1onc(-c2c(Cl)cccc2Cl)c1COc1ccc2cc(-c3ccc(CCC(=O)O)cc3)ccc2c1` [Example 23, 3-{4-[6-({[3-(2,6-Dichlorophenyl)-5-(1-methylethyl)-4-isoxazolyl]methyl}oxy)-2-naphthalenyl]phenyl}propanoic acid]: the EC50 is 102 to 1000 nM.

For the molecule `CC(C)c1onc(-c2c(Cl)cccc2Cl)c1COc1ccc2cc(-c3ccc(C(=O)O)cn3)ccc2c1` [Example 24, 6-[6-({[3-(2,6-Dichlorophenyl)-5-(1-methylethyl)-4-isoxazolyl]methyl}oxy)-2-naphthalenyl]-3-pyridinecarboxylic acid], the EC50 was 102 to 1000 nM.

As for `CC(C)c1onc(-c2c(Cl)cccc2Cl)c1COc1ccc2cc(-c3ccc(C(=O)O)s3)ccc2c1` [Example 25, 5-[6-({[3-(2,6-Dichlorophenyl)-5-(1-methylethyl)-4-isoxazolyl]methyl}oxy)-2-naphthalenyl]-2-thiophenecarboxylic acid], the EC50 was 102 to 1000 nM.

For the molecule `CC(C)c1onc(-c2c(Cl)cccc2Cl)c1COc1ccc2cc(-c3cccc(N(S(=O)(=O)C(F)(F)F)S(=O)(=O)C(F)(F)F)c3)ccc2c1` [Example 26, N-{3-[6-({[3-(2,6-Dichlorophenyl)-5-(1-methylethyl)-4-isoxazolyl]methyl}oxy)-2-naphthalenyl]phenyl}-1,1,1-trifluoro-N-[(trifluoromethyl)sulfonyl]methanesulfonamide], the EC50 was 102 to 1000 nM.

Turning to `CC(=O)N(C(C)=O)c1cccc(-c2ccc3cc(OCc4c(-c5c(Cl)cccc5Cl)noc4C(C)C)ccc3c2)c1` [Example 27, N-acetyl-N-{3-[6-({[3-(2,6-dichlorophenyl)-5-(1-methylethyl)-4-isoxazolyl]methyl}oxy)-2-naphthalenyl]phenyl}acetamide], the EC50 is 102 to 1000 nM.

For the molecule `CC(C)c1onc(-c2c(Cl)cccc2Cl)c1COc1ccc2cc(-c3cccc(NS(=O)(=O)C(F)(F)F)c3)ccc2c1` [Example 28, N-{3-[6-({[3-(2,6-dichlorophenyl)-5-(1-methylethyl)-4-isoxazolyl]methyl}oxy)-2-naphthalenyl]phenyl}-1,1,1-trifluoromethanesulfonamide], the EC50 was 102 to 1000 nM.

With `CC(=O)Nc1cccc(-c2ccc3cc(OCc4c(-c5c(Cl)cccc5Cl)noc4C(C)C)ccc3c2)c1` [Example 29, N-{3-[6-({[3-(2,6-dichlorophenyl)-5-(1-methylethyl)-4-isoxazolyl]methyl}oxy)-2-naphthalenyl]phenyl}acetamide], the EC50 is 102 to 1000 nM.

For `CC(C)c1onc(-c2c(Cl)cccc2Cl)c1COc1ccc2cc(-c3cccc(OC(F)(F)F)c3)ccc2c1` [Example 30, 3-(2,6-Dichlorophenyl)-5-(1-methylethyl)-4-{[(6-{3-[(trifluoromethyl)oxy]phenyl}-2-naphthalenyl)oxy]methyl}isoxazole], the EC50 was 102 to 1000 nM.

For `CC(=O)Nc1ccc(-c2ccc3cc(OCc4c(-c5c(Cl)cccc5Cl)noc4C(C)C)ccc3c2)cc1` [Example 31, N-{4-[6-({[3-(2,6-dichlorophenyl)-5-(1-methylethyl)-4-isoxazolyl]methyl}oxy)-2-naphthalenyl]phenyl}acetamide], the EC50 was 102 to 1000 nM.

Regarding `CC(C)c1onc(-c2c(Cl)cccc2Cl)c1COc1ccc2cc(-c3ccc(NS(=O)(=O)C(F)(F)F)cc3)ccc2c1` [Example 32, N-{4-[6-({[3-(2,6-dichlorophenyl)-5-(1-methylethyl)-4-isoxazolyl]methyl}oxy)-2-naphthalenyl]phenyl}-1,1,1-trifluoromethanesulfonamide], the EC50 was 102 to 1000 nM.

`CC(C)c1onc(-c2c(Cl)cccc2Cl)c1COc1ccc2ccc(-c3cccc(C(=O)O)c3)cc2c1` [Example 33, 3-[7-({[3-(2,6-Dichlorophenyl)-5-(1-methylethyl)-4-isoxazolyl]methyl}oxy)-2-naphthalenyl]benzoic acid]: the EC50 was 102 to 1000 nM.

As to `CC(C)c1onc(-c2c(Cl)cccc2Cl)c1COc1ccc2cc(-c3ccc(Cl)c(C(=O)O)c3)ccc2c1` [Example 34, 2-Chloro-5-[6-({[3-(2,6-dichlorophenyl)-5-(1-methylethyl)-4-isoxazolyl]methyl}oxy)-2-naphthalenyl]benzoic acid], the EC50 is 102 to 1000 nM.

For the molecule `CC(C)c1onc(-c2c(Cl)cccc2Cl)c1COc1ccc2cc(-c3ccc(F)c(C(=O)O)c3)ccc2c1` [Example 35, 5-[6-({[3-(2,6-Dichlorophenyl)-5-(1-methylethyl)-4-isoxazolyl]methyl}oxy)-2-naphthalenyl]-2-fluorobenzoic acid], the EC50 was 102 to 1000 nM.

For `CC(C)c1onc(-c2c(Cl)cccc2Cl)c1COc1ccc2cc(-c3cccc(C(=O)O)c3)sc2c1` [Example 36, 3-[6-({[3-(2,6-Dichlorophenyl)-5-(1-methylethyl)-4-isoxazolyl]methyl}oxy)-1-benzothien-2-yl]benzoic acid], the EC50 is 102 to 1000 nM.

`CC(C)c1onc(-c2c(Cl)cccc2Cl)c1CNc1nc2ccc(-c3cccc(C(=O)O)c3)cc2s1` [Example 37, 3-[2-({[3-(2,6-Dichlorophenyl)-5-(1-methylethyl)-4-isoxazolyl]methyl}amino)-1,3-benzothiazol-6-yl]benzoic acid]: the EC50 is 102 to 1000 nM.

For `CC(C)c1onc(-c2c(Cl)cccc2Cl)c1COc1ccc2cc(-c3cccc(C(=O)O)c3)ccc2c1` [Example 38, 3-[6-({[3-(2,6-Dichlorophenyl)-5-(1-methylethyl)-4-isoxazolyl]methyl}oxy)-2-naphthalenyl]benzoic acid], the EC50 is 102 to 1000 nM.

`CC(C)c1onc(-c2c(Cl)cccc2Cl)c1CCc1nc2cc(-c3cccc(C(=O)O)c3)ccc2o1` [Example 39, 3-(2-{2-[3-(2,6-dichlorophenyl)-5-(1-methylethyl)-4-isoxazolyl]ethyl}-1,3-benzoxazol-5-yl)benzoic acid]: the EC50 is 1020 to 10000 nM.

In the case of `CC(C)c1onc(-c2c(Cl)cccc2Cl)c1COc1ccc2c(Nc3cccc(C(=O)O)c3)cccc2c1` [Example 40, 3-{[6-({[3-(2,6-Dichlorophenyl)-5-(1-methylethyl)-4-isoxazolyl]methyl}oxy)-1-naphthalenyl]amino}benzoic acid], the EC50 is 102 to 1000 nM.

With `CC(C)c1onc(-c2c(Cl)cccc2Cl)c1CCc1nc2cccc(Nc3cccc(C(=O)O)c3)c2o1` [Example 41, 3-[(2-{2-[3-(2,6-Dichlorophenyl)-5-(1-methylethyl)-4-isoxazolyl]ethyl}-1,3-benzoxazol-7-yl)amino]benzoic acid], the EC50 was 1020 to 10000 nM.

Turning to `CC(C)c1onc(-c2c(Cl)cccc2Cl)c1COc1ccc2c(c1)ncn2Cc1cccc(C(=O)O)c1` [Example 42, 3-{[5-({[3-(2,6-Dichlorophenyl)-5-(1-methylethyl)-4-isoxazolyl]methyl}oxy)-1H-benzimidazol-1-yl]methyl}benzoic acid], the EC50 was 1020 to 10000 nM.
